Measurements reported in patent US20100298141A1, “SUBSTITUTED PYRIDINE N-OXIDE HERBICIDES” (E. I. DU PONT DE NEMOURS AND COMPANY, priority 2007, published 2010).

Experiments:
common sowthistle = assay: Test F preemergence test; format: in vivo, Sonchus oleraceous; settings: scale 0 to 100
Description: (§1) Seeds of plant species selected from bermudagrass (Cynodon dactylon), Surinam grass (Brachiaria decumbens), large crabgrass (Digitaria sanguinalis), green foxtail (Setaria viridis), goosegrass (Eleusine indica), johnsongrass (Sorghum halepense), kochia (Kochia scoparia), pitted morningglory (Ipomoea lacunosa), purple nutsedge (Cyperus rotundus), common ragweed (Ambrosia elation), mustard (Brassica nigra), guineagrass (Panicum maximum), […] (Paspalum dilatatum), barnyardgrass (Echinochloa crus-galli), southern sandbur (Cenchrus echinatus), common sowthistle (Sonchus oleraceous), prickly […] spinosa), Italian ryegrass (Lolium multiflorum), common purslane (Portulaca oleracea), broadleaf signalgrass (Brachiaria platyphylla), common groundsel (Senecio vulgaris), common chickweed (Stellaria media), Virginia dayflower (Commelina virginica), annual bluegrass (Poa annua), naked crabgrass (Digitaria nuda), […] cochinchinensis), quackgrass (Elytrigia repens), Canada horseweed (Conyza canadensis), field bindweed (Convolvulus arvensis), […] (Bidens bipinnata), common mallow (Malva sylvestris), Russian thistle (Salsola kali), and sugarcane (Saccharum officinarum) were planted and treated preemergence with test chemicals formulated in a non-phytotoxic solvent mixture which included a surfactant. At a different time, sugarcane was treated with postemergence applications of some of the test chemicals formulated in the same manner. Plants were approximately 3- to 4-leaf stage for the postemergence treatments. Treated plants and controls were maintained in a greenhouse for 14 to 21 days, after which time all species were compared to controls and visually evaluated. […] A dash (-) response means no test result.

spanishneedles = assay: Test F preemergence test; format: in vivo, Bidens bipinnata; settings: scale 0 to 100
Description: as §1

windgrass = assay: Test C pre-/postemergence test; format: in vivo, Apera spica-venti; settings: Postemergence; for Plant response rating, Windgrass: scale 0 to 100, 0 no effect, 100 complete control
Description: Seeds of plant species selected from blackgrass (Alopecurus myosuroides), downy brome (Bromus tectorum), green foxtail (Setaria viridis), Italian ryegrass (Lolium multiflorum), wheat (Triticum aestivum), wild oat (Avena fatua), catchweed bedstraw (Galium aparine), Russian thistle (Salsola kali), […] (Cynodon dactylon), Surinam grass (Brachiaria decumbens), cocklebur (Xanthium strumarium), corn (Zea mays), crabgrass (Digitaria sanguinalis), woolly cupgrass (Eriochloa villosa), giant foxtail (Setaria faberii), Goosegrass (Eleusin indica), johnsongrass (Sorghum halepense), kochia (Kochia scoparia), lambsquarters (Chenopodium album), morningglory (Ipomoea coccinea), eastern black nightshade (Solanum ptycanthum), yellow nutsedge (Cyperus esculentus), pigweed (Amaranthus retroflexus), common ragweed (Ambrosia elation), soybean (Glycine max), common (oilseed) sunflower (Helianthus annuus), and velvetleaf (Abutilon theophrasti) were planted and treated preemergence with test chemicals formulated in a non-phytotoxic solvent mixture which included a surfactant. At the same time, plants selected from these crop and weed species and also winter barley (Hordeum vulgare), canarygrass (Phalaris minor), and chickweed (Stellaria media) were treated with postemergence applications of some of the test chemicals formulated in the same manner. Plants ranged in height from 2 to 18 cm (1- to 4-leaf stage) for postemergence treatments. […] At time of treatment, test pots were flooded to 3 cm above the soil surface, treated by application of test compounds directly to the paddy water, and then maintained at that water depth for the duration of the test. […] A dash (-) response means no test result.

winter barley = assay: Test C postemergence test; format: in vivo, Hordeum vulgare; settings: for Plant response rating, Barley: scale 0 to 100, 0 no effect, 100 complete control
Procedure: (§2) At the same time, plants selected from these crop and weed species and also winter barley (Hordeum vulgare), canarygrass (Phalaris minor), and chickweed (Stellaria media) were treated with postemergence applications of some of the test chemicals formulated in the same manner. Plants ranged in height from 2 to 18 cm (1- to 4-leaf stage) for postemergence treatments. […] At time of treatment, test pots were flooded to 3 cm above the soil surface, treated by application of test compounds directly to the paddy water, and then maintained at that water depth for the duration of the test. Treated plants and controls were maintained in a greenhouse for 13 to 15 days, after which time all species were compared to controls and visually evaluated. […] A dash (-) response means no test result.

canarygrass = assay: Test C postemergence test; format: in vivo, Phalaris minor; settings: for Plant response rating, Canarygrass: scale 0 to 100, 0 no effect, 100 complete control
Procedure: as §2

chickweed = assay: Test C postemergence test; format: in vivo, Stellaria media; settings: for Plant response rating, Chickweed: scale 0 to 100, 0 no effect, 100 complete control
Procedure: as §2

Row | Structure (SMILES) | Plant response rating, Spanishneedles (spanishneedles; Preemergence, 31 g ai/ha) | Plant response rating (0 to 100), Windgrass (windgrass; 31 g ai/ha) | Plant response rating (0 to 100), Windgrass (windgrass; 62 g ai/ha) | Plant response rating, Windgrass (windgrass; 125 g ai/ha) | Plant response rating, Windgrass (windgrass; 250 g ai/ha) | Plant response rating (0 to 100), Barley (winter barley; 31 g ai/ha) | Plant response rating, Barley (winter barley; 62 g ai/ha) | Plant response rating, Barley (winter barley; 125 g ai/ha) | Plant response rating, Barley (winter barley; 250 g ai/ha) | Plant response rating (0 to 100), Canarygrass (canarygrass; 31 g ai/ha) | Plant response rating, Canarygrass (canarygrass; 62 g ai/ha) | Plant response rating, Canarygrass (canarygrass; 125 g ai/ha) | Plant response rating, Canarygrass (canarygrass; 250 g ai/ha) | Plant response rating (0 to 100), Chickweed (chickweed; 31 g ai/ha) | Plant response rating, Chickweed (chickweed; 62 g ai/ha) | Plant response rating, Chickweed (chickweed; 125 g ai/ha) | Plant response rating, Chickweed (chickweed; 250 g ai/ha) | further results
1 | Cc1cc[n+]([O-])c(S(=O)(=O)Cc2c(C(F)(F)F)nn(C)c2Cl)c1 [Compound 19] | – | – | – | – | – | – | – | – | – | – | – | – | – | – | – | – | – | Sowthistle plant response rating (common sowthistle; 62 g ai/ha, Preemergence): 80; Sowthistle plant response rating (common sowthistle; 125 g ai/ha, preemergence): 95; Plant response rating, Sowthistle (common sowthistle; Preemergence, 31 g ai/ha): 0
2 | Cn1nc(C(F)(F)F)c(CS(=O)(=O)c2cccc[n+]2[O-])c1OCC(F)(F)F [Compound 29] | 0 | – | – | – | – | – | – | – | – | – | – | – | – | – | – | – | – | Spanishneedles plant response rating (spanishneedles; 62 g ai/ha, Preemergence): 0; Spanishneedles plant response rating (spanishneedles; 125 g ai/ha, preemergence): 25
3 | CC(Oc1c(C[S+]([O-])c2cccc[n+]2[O-])c(C(F)(F)F)nn1C)C(F)(F)F (stereo not shown) [Compound 77] | – | – | – | – | – | – | – | – | – | – | – | – | – | – | – | – | – | Plant response rating, Sowthistle (common sowthistle; 16 g ai/ha, preemergence): 0; Sowthistle plant response rating (common sowthistle; 125 g ai/ha, preemergence): 50; Plant response rating, Sowthistle (common sowthistle; Preemergence, 31 g ai/ha): 0
4 | [O-][n+]1cc(Cl)ccc1[S+]([O-])Cc1c(C(F)(F)F)nn(CC(F)(F)F)c1Cl (stereo not shown) [Compound 47] | – | 0 | 0 | 95 | 98 | 0 | 0 | 10 | 45 | 0 | 0 | 0 | 40 | 0 | 0 | 0 | 0 | –
5 | Cn1nc(C(F)(F)C(F)(F)F)c(C[S+]([O-])c2cccc[n+]2[O-])c1OCC(F)(F)F (stereo not shown) [Compound 79] | – | 60 | 100 | 100 | 100 | 0 | – | 0 | 0 | 0 | – | 0 | 0 | 70 | – | 100 | 100 | Plant response rating (0 to 100), Barley (winter barley; 62 g ai/ha): 0; Plant response rating (0 to 100), Canarygrass (canarygrass; 62 g ai/ha): 0; Plant response rating (0 to 100), Chickweed (chickweed; 62 g ai/ha): 100
6 | CCn1nc(C(F)(F)F)c(C[S+]([O-])c2cccc[n+]2[O-])c1OCC(F)(F)F (racemic) [Compound 65] | – | 50 | 90 | 100 | 100 | 0 | 20 | 40 | 40 | 0 | 20 | 20 | 25 | 30 | 40 | 80 | 100 | –
7 | Cn1nc(C(F)(F)F)c(C[S+]([O-])c2cccc[n+]2[O-])c1OCC(F)(F)F (racemic) [Compound 28] | 80 | – | – | – | – | – | – | – | – | – | – | – | – | – | – | – | – | Spanishneedles plant response rating (spanishneedles; 62 g ai/ha, Preemergence): 100; Spanishneedles plant response rating (spanishneedles; 125 g ai/ha, preemergence): 100
8 | CC(Oc1c(CS(=O)(=O)c2cccc[n+]2[O-])c(C(F)(F)F)nn1C)C(F)(F)F (stereo not shown) [Compound 82] | – | 70 | 90 | 100 | 100 | 0 | – | 0 | 0 | 0 | – | 0 | 0 | 0 | – | 0 | 0 | Plant response rating (0 to 100), Barley (winter barley; 62 g ai/ha): 0; Plant response rating (0 to 100), Canarygrass (canarygrass; 62 g ai/ha): 0; Plant response rating (0 to 100), Chickweed (chickweed; 62 g ai/ha): 0
9 | Cc1cc[n+]([O-])c(S(=O)(=O)Cc2c(C(F)(F)F)nn(C)c2OCC(F)(F)F)c1 [Compound 31] | 100 | – | – | – | – | – | – | – | – | – | – | – | – | – | – | – | – | Plant response rating, Spanishneedles (spanishneedles; 16 g ai/ha, preemergence): 0; Plant response rating, Spanishneedles (spanishneedles; Preemergence, 62 g ai/ha): 100
10 | CCn1nc(C(F)(F)F)c(C(C)S(=O)(=O)c2cccc[n+]2[O-])c1OCC(F)(F)F (stereo not shown) [Compound 69] | – | 40 | 95 | 95 | 100 | 0 | 0 | 20 | 25 | 0 | 0 | 0 | 10 | 0 | 0 | 0 | 40 | –
11 | Cn1nc(OC(F)F)c(CS(=O)(=O)c2cccc[n+]2[O-])c1C(F)(F)F [Compound 80] | 0 | – | – | – | – | – | – | – | – | – | – | – | – | – | – | – | – | Plant response rating, Spanishneedles (spanishneedles; 16 g ai/ha, preemergence): 0; Spanishneedles plant response rating (spanishneedles; 125 g ai/ha, preemergence): 0; Plant response rating, Spanishneedles (spanishneedles; Preemergence, 62 g ai/ha): 0
12 | CC(Oc1c(C[S+]([O-])c2ccc(Cl)c[n+]2[O-])c(C(F)(F)F)nn1C)C(F)(F)F (stereo not shown) [Compound 87] | 0 | – | – | – | – | – | – | – | – | – | – | – | – | – | – | – | – | Plant response rating, Spanishneedles (spanishneedles; 16 g ai/ha, preemergence): 0; Spanishneedles plant response rating (spanishneedles; 125 g ai/ha, preemergence): 100; Plant response rating, Spanishneedles (spanishneedles; Preemergence, 62 g ai/ha): 100
13 | CC(c1c(C(F)(F)F)nn(C)c1Cl)S(=O)(=O)c1ccc(Cl)c[n+]1[O-] (racemic) [Compound 40] | – | 45 | 45 | 85 | 85 | 0 | 0 | 0 | 0 | 0 | 0 | 0 | 30 | 0 | 0 | 0 | 0 | –
14 | Cn1nc(C(F)(F)F)c(C[S+]([O-])c2cccc[n+]2[O-])c1OCC(F)(F)C(F)(F)F (stereo not shown) [Compound 78] | – | 0 | 0 | 95 | 100 | 0 | 0 | 0 | 0 | 0 | 0 | 0 | 0 | 0 | 0 | – | – | –
